Measured values as given in patent US12036312B2, “Non-aqueous topical compositions comprising a halogenated salicylanilide” (priority 2016, dated 2024).
Values after ≈ are worked out from the molar mass of the structure shown. Like-named read-outs stand apart in the source and are kept apart here.

Assays:
S. aureus = assay: MIC assay according to CLSI criteria, Example 2, S. aureus strains; format: cell-based, Staphylococcus aureus; conditions: for MIC: Staphylococcus aureus, read-out: MIC
Procedure, shortened: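 Broth microdilution per CLSI in cation-adjusted Mueller Hinton broth, ~5×10^5 exponential-phase cells per well, aerobic at 37° C for 18 hours; OD600 read at end.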

[1] = tested on: methicillin-resistant Staphylococcus aureus (MRSA 01, MRSA 15, MRSA 16); assay: Resistance mutation frequency evaluation, Example 3; format: cell-based; conditions: at MIC×1; all tested strains (MRSA 01, MRSA 15, MRSA 16); below the detection limit
P. acnes = format: cell-based, Propionibacterium acnes; conditions: for Frequency of mutation/ml: MIC × 4

O=C(Nc1ccc([N+](=O)[O-])cc1Cl)c1cc(Cl)ccc1O [Niclosamide, niclosamide]
MIC distribution: percentage of Staphylococcus aureus strains (S. aureus; MIC 0.5 μg/ml, 205 strains): 27% (55/205)
MIC50 (S. aureus; Staphylococcus aureus strains): 0.25 µg/mL (≈ 0.764 µM)
MIC90 (S. aureus; Staphylococcus aureus strains): 0.5 µg/mL (≈ 1.53 µM)
MIC (S. aureus; MRSA, strain MRSA 01): 0.25 µg/mL (≈ 0.764 µM)
MIC (S. aureus; MRSA, strain MRSA 02): 0.25 µg/mL (≈ 0.764 µM)
MIC (S. aureus; MRSA, strain MRSA 03): 0.25 µg/mL (≈ 0.764 µM)
MIC (S. aureus; MRSA, strain MRSA 04): 0.25 µg/mL (≈ 0.764 µM)
MIC (S. aureus; MRSA, strain MRSA 05): 0.25 µg/mL (≈ 0.764 µM)
MIC (S. aureus; MRSA, strain MRSA 06): 0.25 µg/mL (≈ 0.764 µM)
MIC (S. aureus; MRSA, strain MRSA 08): 0.25 µg/mL (≈ 0.764 µM)
MIC (S. aureus; MRSA, strain MRSA 10): 0.25 µg/mL (≈ 0.764 µM)
MIC (S. aureus; MRSA, strain MRSA 11): 0.25 µg/mL (≈ 0.764 µM)
MIC (S. aureus; MRSA, strain MRSA 12): 0.5 µg/mL (≈ 1.53 µM)
MIC (S. aureus; MRSA, strain MRSA 13): 0.25 µg/mL (≈ 0.764 µM)
MIC (S. aureus; MRSA, strain MRSA 14): 0.25 µg/mL (≈ 0.764 µM)
MIC (S. aureus; MRSA, strain MRSA 15): 0.25 µg/mL (≈ 0.764 µM)
MIC (S. aureus; MRSA, strain MRSA 16): 0.25 µg/mL (≈ 0.764 µM)
MIC (S. aureus; MRSA, strain MRSA 17): 0.25 µg/mL (≈ 0.764 µM)
MIC (S. aureus; MRSA, strain MRSA 18): 0.25 µg/mL (≈ 0.764 µM)
MIC (S. aureus; MRSA, strain MRSA 19): 0.25 µg/mL (≈ 0.764 µM)
MIC (S. aureus; MRSA, strain MRSA 20): 0.25 µg/mL (≈ 0.764 µM)
MIC (S. aureus; MRSA, strain MRSA 21): 0.25 µg/mL (≈ 0.764 µM)
MIC (S. aureus; MRSA, strain MRSA 22): 0.25 µg/mL (≈ 0.764 µM)
MIC (S. aureus; MRSA, strain MRSA 23): 0.25 µg/mL (≈ 0.764 µM)
MIC (S. aureus; MRSA, strain MRSA 24): 0.25 µg/mL (≈ 0.764 µM)
MIC (S. aureus; MRSA, strain MRSA 25): 0.25 µg/mL (≈ 0.764 µM)
MIC (S. aureus; MRSA, strain MRSA 26): 0.5 µg/mL (≈ 1.53 µM)
MIC (S. aureus; MRSA, strain MRSA 27): 0.5 µg/mL (≈ 1.53 µM)
MIC (S. aureus; MRSA, strain MRSA 28): 0.25 µg/mL (≈ 0.764 µM)
MIC (S. aureus; MRSA, strain MRSA 29): 0.5 µg/mL (≈ 1.53 µM)
MIC (S. aureus; MRSA, strain MRSA 30): 0.25 µg/mL (≈ 0.764 µM)
MIC (S. aureus; MRSA, strain MRSA 31): 0.25 µg/mL (≈ 0.764 µM)
MIC (S. aureus; MRSA, strain MRSA 32): 0.25 µg/mL (≈ 0.764 µM)
MIC (S. aureus; MRSA, strain MRSA 33): 0.25 µg/mL (≈ 0.764 µM)
MIC (S. aureus; MRSA, strain MRSA 34): 0.25 µg/mL (≈ 0.764 µM)
MIC (S. aureus; MRSA, strain MRSA 35): 0.25 µg/mL (≈ 0.764 µM)
MIC (S. aureus; MRSA, strain MRSA 70): 0.125 µg/mL (≈ 0.382 µM)
MIC (S. aureus; MRSA, strain MRSA 73): 0.5 µg/mL (≈ 1.53 µM)
MIC (S. aureus; MRSA, strain MRSA 75): 0.5 µg/mL (≈ 1.53 µM)
MIC (S. aureus; MRSA, strain MRSA 78): 0.5 µg/mL (≈ 1.53 µM)
MIC (S. aureus; MRSA, strain MRSA 80): 0.5 µg/mL (≈ 1.53 µM)
MIC (S. aureus; MRSA, strain MRSA 81): 0.5 µg/mL (≈ 1.53 µM)
MIC (S. aureus; MRSA, strain MRSA 83): 0.5 µg/mL (≈ 1.53 µM)
MIC (S. aureus; MRSA, strain MRSA 88): 0.25 µg/mL (≈ 0.764 µM)
MIC (S. aureus; MRSA, strain MRSA 90): 0.5 µg/mL (≈ 1.53 µM)
MIC (S. aureus; MRSA, strain MRSA 91): 0.25 µg/mL (≈ 0.764 µM)
MIC (S. aureus; MRSA, strain MRSA 92): 0.25 µg/mL (≈ 0.764 µM)
MIC (S. aureus; MRSA, strain MRSA 93): 0.25 µg/mL (≈ 0.764 µM)
MIC (S. aureus; MRSA, strain MRSA 94): 0.25 µg/mL (≈ 0.764 µM)
MIC (S. aureus; MRSA, strain MRSA 95): 0.25 µg/mL (≈ 0.764 µM)
MIC (S. aureus; MRSA, strain MRSA 96): 0.25 µg/mL (≈ 0.764 µM)
MIC (S. aureus; MRSA, strain MRSA 97): 0.25 µg/mL (≈ 0.764 µM)
MIC (S. aureus; MRSA, strain MRSA 98): 0.5 µg/mL (≈ 1.53 µM)
MIC (S. aureus; MRSA, strain MRSA 99): 0.25 µg/mL (≈ 0.764 µM)
MIC (S. aureus; MRSA, strain MRSA 100): 0.25 µg/mL (≈ 0.764 µM)
MIC (S. aureus; MRSA, strain MRSA 101): 0.5 µg/mL (≈ 1.53 µM)
MIC (S. aureus; MRSA, strain MRSA 102): 0.25 µg/mL (≈ 0.764 µM)
MIC (S. aureus; MRSA, strain MRSA 103): 0.25 µg/mL (≈ 0.764 µM)
MIC (S. aureus; MRSA, strain MRSA 104): 0.5 µg/mL (≈ 1.53 µM)
MIC (S. aureus; MRSA, strain MRSA 105): 0.25 µg/mL (≈ 0.764 µM)
MIC (S. aureus; MRSA, strain MRSA 106): 0.25 µg/mL (≈ 0.764 µM)
MIC (S. aureus; MRSA, strain MRSA 107): 0.25 µg/mL (≈ 0.764 µM)
MIC (S. aureus; MRSA, strain MRSA 108): 0.25 µg/mL (≈ 0.764 µM)
MIC (S. aureus; MRSA, strain MRSA 109): 0.25 µg/mL (≈ 0.764 µM)
MIC (S. aureus; MRSA, strain MRSA 110): 0.25 µg/mL (≈ 0.764 µM)
MIC (S. aureus; MRSA, strain MRSA 111): 0.5 µg/mL (≈ 1.53 µM)
MIC (S. aureus; MRSA, strain MRSA 112): 0.25 µg/mL (≈ 0.764 µM)
MIC (S. aureus; MRSA, strain MRSA 113): 0.25 µg/mL (≈ 0.764 µM)
MIC (S. aureus; MSSA, strain MSSA 01): 0.5 µg/mL (≈ 1.53 µM)
MIC (S. aureus; MSSA, strain MSSA 02): 0.25 µg/mL (≈ 0.764 µM)
MIC (S. aureus; NEWMAN, strain Newman): 0.25 µg/mL (≈ 0.764 µM)
mutational frequency [1]: < 4.10^−9
frequency of mutation of resistance (P. acnes; P. acnes): less than 1×10^−9
frequency of mutation, times lower than the two comparator compounds fusidic acid and retapamulin (P. acnes; P. acnes): at least 10 times
Frequency of mutation/ml (P. acnes; P. acnes strain 998): <2.5e-09 mL⁻¹
Frequency of mutation/ml (P. acnes; P. acnes strain 1044): <1.92e-08 mL⁻¹
Frequency of mutation/ml (P. acnes; P. acnes strain CSS3023): <4.55e-09 mL⁻¹
Frequency of mutation/ml (P. acnes; P. acnes strain CSS3288): <2.7e-09 mL⁻¹
